Measurements published in US9072293B2, “Cyclopropenes and method for applying cyclopropenes to agricultural products or crops” (Erum Biotechnologies Inc., priority 2010, dated 2015).
Several values for one entry are separate records, joined by “and”; a condition that tells them apart may be missing. Equal entries are not always repeated.

How the values were obtained:
tomato [1] = assay: Experimental Example 2: Efficacy test on tomato using oil based formulation (reddening grade); assay type: in vivo; set-up: key: an area in which the surface of tomato was colored in pink was 10% or less; an area in which the surface of tomato was completely colored in red was 10 to 40%; 2: an area in which the surface of tomato was completely colored in red was 40 to 70%; 3: an area in which the surface of tomato was completely colored in red was 70% or more and the bottom area remained green; 4: an area in which the surface of tomato was most colored in red and only a part of (0 to 10%) the bottom area remained green; 5: the surface of tomato did not entirely color in green; details: 1.0 mM oil-based formulation, individual tomatoes n=4
Excerpt: (§1) At this time, the tops of tomatoes most early turned red, while the bottoms thereof most lately turned red. For this reason, in order to accurately evaluate the difference in reddening, the coloring evaluated was based on the area of red color, rather than the color of tomatoes. […] Accordingly, the grade level is proportional to the rate at which the tomatoes ripened.
As illustrated in Example 1, in situ, in accordance with the methods of Preparation Examples 15, 16, 17, 18 and 22, five agents (1.0 mmol) such as 1-(2-phenylethyl)cyclopropene, 1-(3-phenylpropyl)cyclopropene, 1-(4-phenylbutyl)cyclopropene, 1-(5-phenylpentyl)cyclopropene and 1-hexylcyclopropene were prepared, 5.0 ml of xylene and 5.0 ml of water were added to the reaction solution, vigorously stirred for 5 minutes and stood. When the mixture was separated into an organic layer (upper layer) and an aqueous layer (lower layer), only the organic layer was collected and the aqueous layer was discarded. […] of hexane was added to the organic layer and homogeneously mixed to prepare a 1.0 mM oil-based formulation.
The tomatoes were screened in the same manner as in Experimental Example 1 and divided into 7 groups (n=4) including a non-treated group, a control group (solvent-treated group) and 5 agent groups. Tomatoes were treated with the previously prepared agent using a household sprayer such that the surface thereof was saturated. The tomatoes were stood at room temperature (25-30° C.) for 3 days and a reddening level thereof was evaluated based on grades of 0 to 5.

tomato [2] = assay: Experimental Example 1: Efficacy test on tomato using emulsion (reddening grade); assay type: in vivo; set-up: key: an area in which the surface of tomato was colored in pink was 10% or less; an area in which the surface of tomato was completely colored in red was 10 to 40%; 2: an area in which the surface of tomato was completely colored in red was 40 to 70%; 3: an area in which the surface of tomato was completely colored in red was 70% or more and the bottom area remained green; 4: an area in which the surface of tomato was most colored in red and only a part of (0 to 10%) the bottom area remained green; 5: the surface of tomato did not entirely color in green; details: individual tomatoes n=4
Method: In situ, a 1.0 mM 1-octylcyclopropene formulation was prepared using (trans)-1-octyl-1-(methanesulfonyloxy)-2-(trimethylsilyl)cyclopropane of Preparation Example 10 in the same manner as in Example 7. This solution was diluted to 1 to 100 times prior to use, as necessary. Experimental Example 1: Efficacy test on tomato using emulsion 1.0 mM formulations of five agents such as 1-(2-phenylethyl)cyclopropene, 1-(3-phenylpropyl)cyclopropene, 1-(4-phenylbutyl)cyclopropene, 1-(5-phenylpentyl)cyclopropene and 1-hexylcyclopropene were prepared in the same manner as in Example 1, and 1.0 mM and 100 μM solutions were prepared therefrom. Then, the effects of the solutions were compared with non-treated groups and control groups in which a surfactant or a stabilizing agent (sodium dodecylbenzenesulfonate or tristyrenylphenykethoxy)12ethanol) is dissolved.
Tomatoes whose top end began to turn pink were screened, harvested and divided into 12 groups (n=4) in total, i.e., non-treated groups, control groups (surfactant) and agent groups with different concentrations such as 100 μM and 1.0 mM. Tomatoes were treated with the prepared agent formulation using a household sprayer such that the surface thereof was saturated. The tomatoes were stood at room temperature (25-30° C.) for 3 days and a reddening level thereof was evaluated based on grades of 0 to 5.
as §1

[3] = Relative chemical stability of cyclopropenes measured by 1H-NMR; assay type: physicochemical; details: for Stability (relative chemical stability, based on cyclopropenes having a chain length of 1): 1H-NMR, CDCl3, stored at −20° C. or room temperature, relative to chain length 1
Excerpt: A variety of analysis methods can be used to analyze the derivatives of Formula 6, since the absorbance of cyclopropenes containing an aryl group can be easily measured in the UV range. It can be confirmed that the chemical stability of the derivatives increases, when the length of chains to link an aryl ring to a cyclopropene ring is 2 or more. […] It is supposed that the stability of cyclopropenes increase due to the fact that π electrons of aryl groups affect π electrons of cyclopropenes.
The following Table 1 summarizes the relative chemical stability of cyclopropenes having a chain length of 2, 3, 4 or 5, based on the chemical stability of cyclopropenes having a chain length of 1. In the case of cyclopropene having a chain length of 1, the structure thereof can be confirmed via ^1H-NMR within one hour following synthesis (degraded to a level of 50% or more within one hour at 30° C.). In the case of cyclopropene having a chain length of zero, synthesis thereof was attempted in accordance with the present invention, but was impossible by a conventional method. Meanwhile, in the case of cyclopropenes having a chain length of 2 or more, the structure thereof can be precisely confirmed by ^1H-NMR as well as ^13C-NMR. The stability of these cyclopropenes was measured by ^1H-NMR while NMR cells (CDCl3) were stored at −20° C. or room temperature. In particular, cyclopropenes having chains of 3 or more were so stable that their half-life reached 5 days or longer at −20° C. or lower. In ^1H-NMR analysis, the stability was evaluated by comparing integral values at 4 to 6.5 ppm (1H) and 0.8 to 0.9 ppm (2H), characteristic peaks of 1-alkylcyclopropenes, using a small amount of 1,1,3,3-tetramethylurea (2.80 ppm) as an internal standard. Furthermore, the stability was also qualitatively evaluated by comparing integral value of the peak newly generated adjacent to the peak of the olefin proton of cyclopropene ring, as a 1-alkylcyclopropene compound is decomposed.

| Stability (relative chemical stability, based on cyclopropenes having a chain length of 1) [3] | chemical stability (in words) [3] | SMILES | Tomato results: reddening level (grade 0 to 5) (tomato [1]; Day 0, room temperature (25-30° C.)) | Tomato results: reddening level (grade 0 to 5) (tomato [1]; Day 1, room temperature (25-30° C.)) | Tomato results: reddening level (grade 0 to 5) (tomato [1]; Day 2, room temperature (25-30° C.)) | Tomato results: reddening level (grade 0 to 5) (tomato [1]; Day 3, room temperature (25-30° C.)) | reddening level (grade 0 to 5) (tomato [2]; 100 μM, Day 0, room temperature (25-30° C.)) | reddening level (grade 0 to 5) (tomato [2]; 100 μM, Day 1, room temperature (25-30° C.)) | reddening level (grade 0 to 5) (tomato [2]; 100 μM, Day 2, room temperature (25-30° C.)) | reddening level (grade 0 to 5) (tomato [2]; 100 μM, Day 3, room temperature (25-30° C.)) | reddening level (grade 0 to 5) (tomato [2]; 1.0 mM, Day 0, room temperature (25-30° C.)) | reddening level (grade 0 to 5) (tomato [2]; 1.0 mM, Day 1, room temperature (25-30° C.)) | reddening level (grade 0 to 5) (tomato [2]; 1.0 mM, Day 2, room temperature (25-30° C.)) | reddening level (grade 0 to 5) (tomato [2]; 1.0 mM, Day 3, room temperature (25-30° C.)) |
| --- | --- | --- | --- | --- | --- | --- | --- | --- | --- | --- | --- | --- | --- | --- |
| – | – | CCCCCCC1=CC1 [(Hexyl), 1-hexylcyclopropene, reference compound] | 0 (an area in which the surface of tomato was colored in pink was 10% or less) (2×) and 1 (an area in which the surface of tomato was completely colored in red was 10 to 40%) and 2 (an area in which the surface of tomato was completely colored in red was 40 to 70%) | 1 (an area in which the surface of tomato was completely colored in red was 10 to 40%) (2×) and 2 (an area in which the surface of tomato was completely colored in red was 40 to 70%) and 3 (an area in which the surface of tomato was completely colored in red was 70% or more and the bottom area remained green) | 3 (an area in which the surface of tomato was completely colored in red was 70% or more and the bottom area remained green) and 2 (an area in which the surface of tomato was completely colored in red was 40 to 70%) and 4 and 5 | 4 (2×) and 5 (2×) | 0 (an area in which the surface of tomato was colored in pink was 10% or less) (2×) and 1 (an area in which the surface of tomato was completely colored in red was 10 to 40%) and 2 (an area in which the surface of tomato was completely colored in red was 40 to 70%) | 1 (an area in which the surface of tomato was completely colored in red was 10 to 40%) (2×) and 3 (an area in which the surface of tomato was completely colored in red was 70% or more and the bottom area remained green) and 4 | 3 (an area in which the surface of tomato was completely colored in red was 70% or more and the bottom area remained green) (2×) and 4 and 5 | 4 and 5 (3×) | 0 (an area in which the surface of tomato was colored in pink was 10% or less) (2×) and 1 (an area in which the surface of tomato was completely colored in red was 10 to 40%) and 2 (an area in which the surface of tomato was completely colored in red was 40 to 70%) | 1 (an area in which the surface of tomato was completely colored in red was 10 to 40%) (2×) and 2 (an area in which the surface of tomato was completely colored in red was 40 to 70%) and 3 (an area in which the surface of tomato was completely colored in red was 70% or more and the bottom area remained green) | 2 (an area in which the surface of tomato was completely colored in red was 40 to 70%) (2×) and 3 (an area in which the surface of tomato was completely colored in red was 70% or more and the bottom area remained green) and 4 | 3 (an area in which the surface of tomato was completely colored in red was 70% or more and the bottom area remained green) (2×) and 5 (2×) |
| ~1 | – | COc1ccc(CC2=CC2)cc1 [A=—, Z=4-OCH, 1-(4-methoxybenzyl)cyclopropene] | – | – | – | – | – | – | – | – | – | – | – | – |
| 1 | considerably unstable | C1=C(Cc2ccccc2)C1 [1-benzylcyclopropene] | – | – | – | – | – | – | – | – | – | – | – | – |
